From patent US20220332701A1, “HETEROCYCLIC COMPOUNDS AS BCR-ABL INHIBITORS” (ASCENTAGE PHARMA (SUZHOU) CO., LTD., priority 2019, published 2022)

Key:
BaF3(WT) = BaF3(WT) (Homo sapiens, UniProt P00519); assay: WST (CCK-8) anti-proliferation assay, BaF3 WT cells; conditions: read-out: BaF3(WT); anti-proliferative IC50, 72 h treatment, CCK-8, BaF3 WT
BaF3(T315I) = BaF3(T315I) (Homo sapiens, UniProt P00519, T315I, cells depend on it); assay: WST (CCK-8) anti-proliferation assay, BaF3 T315I cells; conditions: read-out: BaF3(T315I); anti-proliferative IC50, 72 h treatment, CCK-8, BaF3 T315I

GI50 (BaF3(WT)) | GI50 (BaF3(T315I)) | SMILES
0.017 µM | 0.333 µM | CC(C)N1CC(C)(C)Oc2cc(C(=O)Nc3ccc(OC(F)(F)Cl)cc3)cc(-c3ccn[nH]3)c21 [IX-5, N-(4-(chlorodifluoromethoxy)phenyl)-4-isopropyl-2,2-dimethyl-5-(1H-pyrazol-5-yl)-3,4-dihydro-2H-benzo[b][1,4]oxazine-7-carboxamide]
0.113 µM | 0.94 µM | CC(C)N1c2c(cc(C(=O)Nc3ccc(OC(F)(F)Cl)cc3)cc2-c2ccn[nH]2)CC1C(=O)N1CC[C@@H](O)C1 (stereo partly drawn) [VII-29, N-(4-(chlorodifluoromethoxy)phenyl)-2-((R)-3-hydroxypyrrolidine-1-carbonyl)-1-isopropyl-7-(1H-pyrazol-5-yl)indoline-5-carboxamide]
0.018 µM | 0.474 µM | CC(C)N1CCc2cc(C(=O)Nc3ccc(SC(F)(F)F)cc3)cc(-c3ccn[nH]3)c21 [VII-45, 1-isopropyl-7-(1H-pyrazol-5-yl)-N-(4-((trifluoromethyl)thio)phenyl)indoline-5-carboxamide]
